Data: patent EP0079489A1, “Methotrexate-labeled iodothyronine conjugates and method, reagent means and test device for the determination of iodothyronine in or iodothyronine uptake of a liquid sample” (MILES LABORATORIES, INC., priority 1981, dated 1983)

Tests used:
[1] = test system: Rabbit antibody to thyroxine; experiment: Titration of antibody to thyroxine with the labeled conjugate, thiazoyl blue colorimetric read-out (Example 2B); type: binding; conditions: 40 µl Reagent 5 (conjugate), 10 minutes
Method: Thyroxine-free serum was prepared by treatment of pooled human serum with charcoal [Larsen et al, J. Clin. Endocrinol. Metab. 37:177(1973)]. All reagents except thyroxine-free serum or as otherwise indicated below were prepared in 0.1 M sodium phosphate buffer, pH 6.5, containing 0.3 M potassium chloride and 0.005% sodium azide. • Reagent 1 - Mixture of 6.5 ml of 10 mM 8-anilinonaphthalene sulfonic acid and 10 ml of thyroxine-free serum. • Reagent 2 - Mixture of 1.0 ml of bovine liver dihydrofolate reductase (0.152 units/ml) and 1.0 ml of 11 mM thiazoyl blue. • Reagent 3 - 0.114 mM dihydrofolate in 0.085 M sodium phosphate buffer, pH 6.2, 0.255 mM potassium chloride, and 0.043% sodium azide. • Reagent 4 - Rabbit antibody to thyroxine diluted 10-fold in buffer. • Reagent 5 - […] methotrexate-thyroxine conjugate (Part A above) in 10 mM sodium carbonate buffer, pH 9.5. • Reagent 6 - 10 mM NADPH in 10 mM sodium carbonate buffer, pH 9.5.
Various amounts of Reagent 4 (indicated in Table 4 below) were mixed with 40 µl of Reagent 5, 90 µl of Reagent 6, and sufficient buffer to make a final volume of 625 pl. Then 175 µl of Reagent 1 was added to each followed by 250 µl of buffer and the incubation was continued. After 10 minutes from the addition of Reagent 3, the absorbance at 560 nm was recorded for each reaction mixture and shown in Table 4.

Antibody to Thyroxine [2] = experiment: Competitive binding assay for thyroxine, dihydrofolate reductase activity read-out (Example 1E); conditions: 100 µl of 0.16 µM conjugate
Method: (§1) The standard assay consisted of 0.10 mM dihydrofolate (DHF), 0.10 mM NADPH, 0.001 unit/bovine liver dihydrofolate reductase (Sigma Chemical Co., St. Louis, MO) and 0.1 M sodium phosphate (pH 6.0) in a final volume of 2.0 ml. The reaction mixture without dihydrofolate was incubated at 37°C for 5 minutes, then the reaction was initiated by adding dihydrofolate, and an initial absorbance at 340 nm was recorded with a Gilford 250 spectrophotometer (Gilford Instrument Laboratories, Oberlin, OH). The reaction was allowed to proceed for 20 minutes at 37°C and then a final reading was recorded. The enzyme activity was expressed as the change in absorbance (AA) at 340 nanometers (nm) that occurred during the 20 minute (min) reaction.
The standard concentrations of NADPH, buffer, antibody to thyroxine and various concentrations of thyroxine were incubated at room remperature for a minimum of 30 seconds. Then 100 µl of […] methotrexate-aminobutylthyroxine was added and the mixture was incubated at room temperature for 2 minutes. Following the second incubation, dihydrofolate reductase was added and the mixture was incubated an additional 5 minutes at 37°C. The reaction was initiated and monitored in the usual manner.

[3] = target: T1, bovine liver dihydrofolate reductase (Bos taurus, UniProt P00376); experiment: Inhibition of dihydrofolate reductase by the labeled conjugate (Example 1C); type: biochemical; conditions: for ΔA340/20 Min: 37°C, without conjugate 0.645
T1 construct: bovine liver dihydrofolate reductase (Sigma Chemical Co., St. Louis, MO); purchased Sigma Chemical Co., St. Louis, MO; host or cells: bovine liver
T1 sequence (P00376 1-187): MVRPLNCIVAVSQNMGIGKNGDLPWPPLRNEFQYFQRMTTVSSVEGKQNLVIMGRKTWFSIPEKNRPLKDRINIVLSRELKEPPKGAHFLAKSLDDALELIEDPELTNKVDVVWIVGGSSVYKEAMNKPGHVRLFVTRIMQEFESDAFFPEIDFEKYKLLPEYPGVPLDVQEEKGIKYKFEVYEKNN
Method: as §1
Various concentrations of methotrexate-aminobutylthroxine conjugate were incubated with the standard concentrations of NADPH, dihydrofolate reductase and buffer for 5 minutes at 37°C. The reaction was initiated as discussed above with the addition of dihydrofolate.

Antibody to Thyroxine [4] = experiment: Titration of antibody to thyroxine with the labeled conjugate, dihydrofolate reductase activity read-out (Example 1D); type: binding; conditions: 75 µl of 0.16 µM conjugate (6 nM)
Method: as §1
Various concentrations of antibody to thyroxine and the standard concentrations of NADPH, 6 nM methotrexate-aminobutylthyroxine and buffers were incubated for 2 minutes at room temperature. Dihydrofolate reductase was then added, and the incubation was continued for 5 minutes at 37°C. The enzyme catalyzed reaction was initiated by addition of dihydrofolate and monitored as described above.

SMILES	Average Absorbance (560 nm) ([1]; 20 µl Reagent 4 (rabbit antibody diluted 10-fold))	Average Absorbance (560 nm) ([1]; 40 µl Reagent 4 (rabbit antibody diluted 10-fold))	Average Absorbance (560 nm) ([1]; 80 µl Reagent 4 (rabbit antibody diluted 10-fold))	Average Absorbance (560 nm) ([1]; 160 µl Reagent 4 (rabbit antibody diluted 10-fold))	Average Absorbance (560 nm) ([1]; 320 µl Reagent 4 (rabbit antibody diluted 10-fold))	Average Absorbance (560 nm) ([1]; no antibody solution, thyroxine-free serum present)	ΔA340/20 Min (Antibody to Thyroxine [2]; 30 µl antibody to thyroxine 1:4 dil, no thyroxine)	ΔA340/20 Min (Antibody to Thyroxine [2]; no antibody, without conjugate 0.620)	ΔA340/20 Min ([3]; 25 μl of 0.16 μM conjugate in 2.0 ml final volume)	ΔA340/20 Min ([3]; 50 μl of 0.16 μM conjugate in 2.0 ml final volume)	ΔA340/20 Min ([3]; 100 μl of 0.16 μM conjugate in 2.0 ml final volume)	ΔA340/20 Min ([3]; 200 μl of 0.16 μM conjugate in 2.0 ml final volume)	inhibition of dihydrofolate reductase (verdict in words) ([3]; various concentrations of conjugate, Table 1)	ΔA340/20 Min (Antibody to Thyroxine [4]; 10 µl antibody to thyroxine 1:9 dilution)	ΔA340/20 Min (Antibody to Thyroxine [4]; 20 µl antibody to thyroxine 1:9 dilution)	ΔA340/20 Min (Antibody to Thyroxine [4]; 40 µl antibody to thyroxine 1:9 dilution)	ΔA340/20 Min (Antibody to Thyroxine [4]; 80 µl antibody to thyroxine 1:9 dilution)	ΔA340/20 Min (Antibody to Thyroxine [4]; 160 µl antibody to thyroxine 1:9 dilution)	ΔA340/20 Min (Antibody to Thyroxine [4]; no antibody, without conjugate and antibody 0.691)
CN(Cc1cnc2nc(N)nc(N)c2n1)c1ccc(C(=O)NC(CCC(=O)NC(Cc2cc(I)c(Oc3cc(I)c(O)c(I)c3)c(I)c2)C(=O)O)C(=O)O)cc1 (stereo not shown) [methotrexate-thyroxine conjugate, Methotrexate-thyroxine Conjugate]	0.538	0.581	0.632	0.689	0.737	0.478	–	–	–	–	–	–	–	–	–	–	–	–	–
CN(Cc1cnc2nc(N)nc(N)c2n1)c1ccc(C(=O)NC(CCC(=O)NCCCCNC(Cc2cc(I)c(Oc3cc(I)c(O)c(I)c3)c(I)c2)C(=O)O)C(=O)O)cc1 (stereo not shown) [Methotrexate-Aminobutyl-Thyroxine, Methotrexate-aminobutylthyroxine Conjugate]	–	–	–	–	–	–	0.645	0.458	0.566	0.495	0.433	0.306	effective inhibitor	0.579	0.602	0.664	0.656	0.667	0.499
